Where a name gives a salt, the structure may show the parent alone.
Key:
[1] = biological target: T1, PI3Kγ (Homo sapiens, UniProt P48736); assay: Inhibition of PI3K isoforms: PI3Kγ (microfluidic electrophoresis kinase assay, PIP2/PS substrate); type: biochemical; conditions: p120γ, ATP 100 μM; read-out: PI3Kg IC50
T1 construct: Full length N-terminal; His (N); host or cells: SF9 cells (baculovirus)
Experimental: (§1) The kinase substrate was prepared by mixing and sonicating fluorescently-labeled phosphatidylinositol 4,5-phosphate (PIP2) with phospho-L-serine (PS) at 1:20 ratio in 50 mM HEPES buffer pH7.5.
(§2) The kinase reactions were assembled in 384-well plates (Greiner) in a total volume of […] as follows. The kinase proteins were pre-diluted in an assay buffer comprising 50 mM HEPES, pH 7.5, 0.012% CHAPS, 1 mM DTT, 10 mM Na3VaO4, 10 mM 3-GP, 3 mM MgCl2, and 40 mM NaCl2, and dispensed into a 384-well plate (10 μL per well). Test compounds were serially pre-diluted in DMSO and added to the protein samples by acoustic dispensing (Labcyte Echo). The concentration of DMSO was equalized to 1% in all samples. All test compounds were tested at 12 concentrations. […] Terminated plates were analyzed on a microfluidic electrophoresis instrument (Caliper LabChip® 3000, Caliper Life Sciences/Perkin Elmer). The change in the relative fluorescence intensity of the PI(4,5)P substrate and PI(3,4,5)P product peaks was measured. The activity in each test sample was determined as the product to sum ratio (PSR): P/(S+P), where P is the peak height of the product, and S is the peak height of the substrate. Percent inhibition (Pinh) was determined using the following equation: […]

[2] = biological target: T2, PI3Kβ (Homo sapiens, UniProt P42338); assay: Inhibition of PI3K isoforms: PI3Kβ (microfluidic electrophoresis kinase assay, PIP2/PS substrate); type: biochemical; conditions: p110β/p85α, ATP 60 μM; read-out: PI3Kb IC50
T2 construct: Full-length N-terminal; GST (N); host or cells: SF9 cells (baculovirus)
Experimental: as §1, §2

T2 sequence (P42338 whole entry, canonical isoform): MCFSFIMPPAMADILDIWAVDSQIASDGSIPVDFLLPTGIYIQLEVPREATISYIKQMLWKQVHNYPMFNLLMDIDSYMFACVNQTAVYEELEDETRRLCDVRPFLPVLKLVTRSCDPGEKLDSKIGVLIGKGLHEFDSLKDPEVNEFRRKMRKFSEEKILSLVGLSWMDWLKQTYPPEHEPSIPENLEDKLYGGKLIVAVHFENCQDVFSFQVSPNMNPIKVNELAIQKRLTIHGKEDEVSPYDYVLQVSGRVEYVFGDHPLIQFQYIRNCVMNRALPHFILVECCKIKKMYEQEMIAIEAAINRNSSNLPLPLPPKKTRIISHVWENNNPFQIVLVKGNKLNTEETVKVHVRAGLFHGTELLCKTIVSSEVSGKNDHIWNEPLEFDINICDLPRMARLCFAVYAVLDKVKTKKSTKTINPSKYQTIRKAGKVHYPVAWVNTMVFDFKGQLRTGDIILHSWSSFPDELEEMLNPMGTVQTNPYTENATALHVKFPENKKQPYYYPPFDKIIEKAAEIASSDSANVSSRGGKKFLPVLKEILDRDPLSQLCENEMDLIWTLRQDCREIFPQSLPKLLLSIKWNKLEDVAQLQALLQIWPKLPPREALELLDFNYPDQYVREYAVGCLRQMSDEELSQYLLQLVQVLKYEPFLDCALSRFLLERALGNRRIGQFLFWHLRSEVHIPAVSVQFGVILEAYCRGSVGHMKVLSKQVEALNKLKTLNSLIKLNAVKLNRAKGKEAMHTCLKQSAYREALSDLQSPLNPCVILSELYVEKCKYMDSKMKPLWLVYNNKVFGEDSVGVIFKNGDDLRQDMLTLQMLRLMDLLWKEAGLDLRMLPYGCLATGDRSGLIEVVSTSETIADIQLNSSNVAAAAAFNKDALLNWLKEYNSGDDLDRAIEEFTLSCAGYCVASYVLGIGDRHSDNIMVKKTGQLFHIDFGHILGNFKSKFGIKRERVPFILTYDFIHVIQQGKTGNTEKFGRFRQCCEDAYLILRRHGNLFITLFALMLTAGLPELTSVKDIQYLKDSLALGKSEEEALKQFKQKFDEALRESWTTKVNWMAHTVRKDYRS
T2 sequence (P27986 whole entry partner, canonical isoform): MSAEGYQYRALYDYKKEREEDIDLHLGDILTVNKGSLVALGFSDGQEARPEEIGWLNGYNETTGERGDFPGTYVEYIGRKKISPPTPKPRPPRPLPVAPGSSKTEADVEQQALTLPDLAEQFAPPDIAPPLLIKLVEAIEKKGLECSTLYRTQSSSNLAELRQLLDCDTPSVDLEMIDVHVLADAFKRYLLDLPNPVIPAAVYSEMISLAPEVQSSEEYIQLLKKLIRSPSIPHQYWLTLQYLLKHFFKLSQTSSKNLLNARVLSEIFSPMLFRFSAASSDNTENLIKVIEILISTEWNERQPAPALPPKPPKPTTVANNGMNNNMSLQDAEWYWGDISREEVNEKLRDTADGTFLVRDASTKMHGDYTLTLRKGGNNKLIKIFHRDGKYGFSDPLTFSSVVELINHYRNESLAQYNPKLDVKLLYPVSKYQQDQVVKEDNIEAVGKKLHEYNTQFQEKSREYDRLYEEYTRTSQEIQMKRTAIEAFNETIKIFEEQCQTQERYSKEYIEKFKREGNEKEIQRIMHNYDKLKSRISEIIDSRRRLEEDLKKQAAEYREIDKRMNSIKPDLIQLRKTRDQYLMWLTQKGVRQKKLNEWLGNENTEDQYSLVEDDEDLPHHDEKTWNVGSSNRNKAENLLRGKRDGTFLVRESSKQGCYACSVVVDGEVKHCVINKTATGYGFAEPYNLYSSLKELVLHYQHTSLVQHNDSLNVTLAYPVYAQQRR
T1 sequence (P48736 whole entry, canonical isoform): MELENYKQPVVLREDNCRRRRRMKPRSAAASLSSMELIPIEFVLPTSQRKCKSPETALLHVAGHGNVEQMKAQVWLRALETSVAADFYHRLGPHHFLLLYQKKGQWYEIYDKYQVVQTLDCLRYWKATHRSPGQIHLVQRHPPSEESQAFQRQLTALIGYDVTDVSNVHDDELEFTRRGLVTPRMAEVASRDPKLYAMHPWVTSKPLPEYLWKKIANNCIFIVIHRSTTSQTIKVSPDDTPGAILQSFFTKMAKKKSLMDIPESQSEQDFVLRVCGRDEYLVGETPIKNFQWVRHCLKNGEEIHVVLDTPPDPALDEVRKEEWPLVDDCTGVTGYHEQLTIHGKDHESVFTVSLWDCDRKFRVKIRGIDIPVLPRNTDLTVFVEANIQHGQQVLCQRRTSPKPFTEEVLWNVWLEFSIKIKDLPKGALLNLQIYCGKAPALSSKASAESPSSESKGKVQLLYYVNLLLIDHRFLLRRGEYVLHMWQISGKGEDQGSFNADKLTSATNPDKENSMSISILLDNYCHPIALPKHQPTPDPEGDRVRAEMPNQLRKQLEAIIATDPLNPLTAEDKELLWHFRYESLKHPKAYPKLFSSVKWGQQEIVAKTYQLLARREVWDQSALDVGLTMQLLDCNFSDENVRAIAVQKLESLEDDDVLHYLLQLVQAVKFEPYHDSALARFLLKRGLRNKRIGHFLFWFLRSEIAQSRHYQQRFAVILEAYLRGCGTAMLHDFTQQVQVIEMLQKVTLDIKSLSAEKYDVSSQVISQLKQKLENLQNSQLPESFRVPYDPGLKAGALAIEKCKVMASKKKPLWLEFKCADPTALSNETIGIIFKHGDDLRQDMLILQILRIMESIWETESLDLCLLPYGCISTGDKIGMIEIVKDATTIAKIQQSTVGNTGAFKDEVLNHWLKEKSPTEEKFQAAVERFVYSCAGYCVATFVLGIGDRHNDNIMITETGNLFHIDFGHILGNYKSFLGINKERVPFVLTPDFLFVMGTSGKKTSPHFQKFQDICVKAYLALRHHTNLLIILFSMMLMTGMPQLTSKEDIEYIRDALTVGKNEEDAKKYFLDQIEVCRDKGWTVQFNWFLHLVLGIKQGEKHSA

IC50 [1]: > 10 µM | IC50 [2]: > 10 µM
Compound: c1ccc(-c2cc(Nc3nc(N4CCOCC4)c4oc(-c5ccncc5)cc4n3)[nH]n2)cc1 [Compound 1, 4-morpholino-N-(3-phenyl-1H-pyrazol-5-yl)-6-(pyridin-4-yl)furo[3,2-d]pyrimidin-2-amine hydrochloride]

— patent publication US20230146395A1, “Substituted Pyrimidines and Uses Thereof” (Verge Analytics, Inc., priority 2020, published 2023)
